Results taken from PubChem BioAssay (NCI).
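In this assay, cells in 96-well plates receive the compound at five concentrations for 48 hours. Endpoints are linearly interpolated between the surrounding concentrations. GI50 = concentration required for 50% inhibition of growth. TGI is the concentration that stops growth completely.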

Key:
Assay in all cases: NCI anticancer screen, dose series, 48 h
NCI-H226 lung = system: NCI-H226 lung
NCI-H23 lung = system: NCI-H23 lung
NCI-H460 lung = system: NCI-H460 lung
NCI-H522 lung = system: NCI-H522 lung
NCI/ADR-RES ovarian = system: NCI/ADR-RES ovarian
OVCAR-4 ovarian = system: OVCAR-4 ovarian
OVCAR-5 ovarian = system: OVCAR-5 ovarian
OVCAR-8 ovarian = system: OVCAR-8 ovarian
PC-3 prostate = system: PC-3 prostate
RPMI-8226 leukemia = system: RPMI-8226 leukemia
RXF 393 renal = system: RXF 393 renal
SF-268 CNS = system: SF-268 CNS
SF-295 CNS = system: SF-295 CNS
SF-539 CNS = system: SF-539 CNS
SK-MEL-2 melanoma = system: SK-MEL-2 melanoma
SK-MEL-28 melanoma = system: SK-MEL-28 melanoma
SK-MEL-5 melanoma = system: SK-MEL-5 melanoma
SN12C renal = system: SN12C renal
SNB-19 CNS = system: SNB-19 CNS
SNB-75 CNS = system: SNB-75 CNS
SR leukemia = system: SR leukemia
SW-620 colon = system: SW-620 colon
T-47D breast = system: T-47D breast
TK-10 renal = system: TK-10 renal
U251 CNS = system: U251 CNS
UACC-257 melanoma = system: UACC-257 melanoma
UACC-62 melanoma = system: UACC-62 melanoma
UO-31 renal = system: UO-31 renal

SMILES: CNC(=O)c1c(NC(=O)c2ccccc2C(F)(F)F)sc2c1CCC(=O)C2
- GI50 (NCI-H226 lung): 2.46 µM
- TGI (NCI-H226 lung): 8.01 µM
- GI50 (NCI-H23 lung): 1.33 µM
- TGI (NCI-H23 lung): 7.61 µM
- GI50 (NCI-H460 lung): 3.27 µM
- TGI (NCI-H460 lung): > 100 µM
- GI50 (NCI-H522 lung): 0.347 µM
- TGI (NCI-H522 lung): 2.33 µM
- GI50 (NCI/ADR-RES ovarian): 1.97 µM
- TGI (NCI/ADR-RES ovarian): 13.4 µM
- GI50 (OVCAR-4 ovarian): 1.58 µM
- TGI (OVCAR-4 ovarian): 4 µM
- GI50 (OVCAR-5 ovarian): 1.48 µM
- TGI (OVCAR-5 ovarian): 5.58 µM
- GI50 (OVCAR-8 ovarian): 1.41 µM
- TGI (OVCAR-8 ovarian): > 100 µM
- GI50 (PC-3 prostate): 0.426 µM
- TGI (PC-3 prostate): 14.6 µM
- GI50 (RPMI-8226 leukemia): 0.278 µM
- GI50 (RXF 393 renal): 1.12 µM
- TGI (RXF 393 renal): 4.2 µM
- GI50 (SF-268 CNS): 3.19 µM
- TGI (SF-268 CNS): > 100 µM
- GI50 (SF-295 CNS): 2.51 µM
- TGI (SF-295 CNS): 7.63 µM
- GI50 (SF-539 CNS): 0.678 µM
- TGI (SF-539 CNS): 2.22 µM
- GI50 (SK-MEL-2 melanoma): 2.77 µM
- TGI (SK-MEL-2 melanoma): 7.6 µM
- GI50 (SK-MEL-28 melanoma): 3.59 µM
- TGI (SK-MEL-28 melanoma): 54.9 µM
- GI50 (SK-MEL-5 melanoma): 1.7 µM
- TGI (SK-MEL-5 melanoma): 3.72 µM
- GI50 (SN12C renal): 2.9 µM
- TGI (SN12C renal): > 100 µM
- GI50 (SNB-19 CNS): 3.18 µM
- TGI (SNB-19 CNS): > 100 µM
- GI50 (SNB-75 CNS): 1.54 µM
- TGI (SNB-75 CNS): 6.82 µM
- GI50 (SR leukemia): 0.538 µM
- TGI (SR leukemia): > 100 µM
- GI50 (SW-620 colon): 0.363 µM
- TGI (SW-620 colon): 12.2 µM
- GI50 (T-47D breast): 0.528 µM
- TGI (T-47D breast): 4.98 µM
- GI50 (TK-10 renal): 1.54 µM
- TGI (TK-10 renal): > 100 µM
- GI50 (U251 CNS): 0.817 µM
- TGI (U251 CNS): > 100 µM
- GI50 (UACC-257 melanoma): 2.76 µM
- TGI (UACC-257 melanoma): 8.28 µM
- GI50 (UACC-62 melanoma): 1.45 µM
- TGI (UACC-62 melanoma): 3.91 µM
- GI50 (UO-31 renal): 0.574 µM
- TGI (UO-31 renal): 1.95 µM
